Measurements: ChEMBL document CHEMBL1144947, “L-Serine and glycine based ceramide analogues as transdermal permeation enhancers: polar head size and hydrogen bonding” (2003)

Columns and labels:
Homo sapiens [1] = organism: Homo sapiens; experiment: Enhancement ratio in theophylline permeation through human skin from water (in vitro); type: functional
Homo sapiens [2] = organism: Homo sapiens; experiment: Enhancement ratio in theophylline permeation through human skin from isopropyl myristate (IPM) suspension (in vitro); type: functional

## CCCCCCCCCCCCOC(=O)C(CO)NC(=O)C(CO)NC(=O)CCCCCCCCCCC (centres undefined)
Homo sapiens [1]
  ER: 1.26
Homo sapiens [2]
  ER: 1.07

## CCCCCCCCCCCCOC(=O)C(CO)NC(=O)CCCCCCCCCCC (centres undefined)
Homo sapiens [1]
  ER: 2.74
Homo sapiens [2]
  ER: 1.21

## CCCCCCCCCCCCOC(=O)CNC(=O)CNC(=O)CCCCCCCCCCC
Homo sapiens [1]
  ER: 2.28
Homo sapiens [2]
  ER: 1.09

## CCCCCCCCCCCCOC(=O)C(CO)NC(=O)C(O)C(O)C(=O)OCCCCCCCCCCC (centres undefined)
Homo sapiens [1]
  ER: 1.39
Homo sapiens [2]
  ER: 1.45

## CCCCCCCCCCCCOC(=O)CNC(=O)CCCCCCCCCCC
Homo sapiens [1]
  ER: 12.5
Homo sapiens [2]
  ER: 1.11

## CCCCCCCC/C=C/CCCCCCCC(=O)NC(CO)C(=O)OCCCCCCCCCCCC (centres undefined)
Homo sapiens [1]
  ER: 1.26
Homo sapiens [2]
  ER: 1.49

## CCCCCCCCCCCCN1CCCCCC1=O [LAUROCAPRAM]
Homo sapiens [1]
  ER: 2.5
Homo sapiens [2]
  ER: 0.6
